# Measured values taken from US9120744B2, “Plasminogen activator inhibitor-1 inhibitors and methods of use thereof to modulate lipid metabolism” (THE REGENTS OF THE UNIVERSITY OF MICHIGAN, priority 2007, dated 2015).
# Counter-ions that a name gives are not always drawn.
# Biological target: recombinant active human PAI-1 (Homo sapiens (Human), UniProt P05121)
# Experiment: β-trypsin screening assay for PAI-1 inhibitors;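 also: fluorogenic readout with PAI-1 and β-trypsin at 10:1 molar ratio, untreated PAI-1 wells set as 100% PAI-1 activity and β-trypsin alone as 0%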
# Format: biochemical
# Conditions: not given
# recombinant active human PAI-1, sequence (P05121 24-402): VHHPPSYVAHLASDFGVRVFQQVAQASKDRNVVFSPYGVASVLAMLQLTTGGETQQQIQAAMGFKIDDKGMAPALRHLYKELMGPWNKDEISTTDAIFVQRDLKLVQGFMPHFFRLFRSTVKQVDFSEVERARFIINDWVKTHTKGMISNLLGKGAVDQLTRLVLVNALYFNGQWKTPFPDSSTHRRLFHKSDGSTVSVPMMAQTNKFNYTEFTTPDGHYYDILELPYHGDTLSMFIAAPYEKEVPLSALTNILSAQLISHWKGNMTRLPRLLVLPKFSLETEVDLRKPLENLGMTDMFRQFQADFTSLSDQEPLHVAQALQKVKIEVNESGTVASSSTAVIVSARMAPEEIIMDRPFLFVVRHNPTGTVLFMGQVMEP
row,Compound,screening hit: restoration of β-trypsin activity
1,Cl.NCCc1ccc(O)c(O)c1 [DOPAMINE HYDROCHLORIDE],demonstrate PAI-1 inhibitor activity
2,CNCC[C@H](Oc1cccc2ccccc12)c1cccs1 [DULOXETINE HCl],demonstrate PAI-1 inhibitor activity

# Same assay, conditions: 10 μM compound; hit = more than 3 standard deviations above control
row,Compound,screening hit: restoration of β-trypsin activity
1,COc1cc(OC)c2c(c1)O[C@H](c1ccc(OC)c(OC)c1)[C@@H](O)C2,demonstrate PAI-1 inhibitor activity
2,C=CC1=C(C(=O)O)N2C(=O)[C@@H](NC(=O)C(NC)c3csc(N)n3)[C@H]2SC1 (stereo partly drawn),demonstrate PAI-1 inhibitor activity
3,O=c1cnn([C@H]2O[C@@H](CO)[C@H](O)[C@@H]2O)c(=O)[nH]1 (stereo in doubt) [6-AZAURIDINE],demonstrate PAI-1 inhibitor activity
4,"CC(C)c1ccc2c(c1)c(SC(C)(C)C)c(CC(C)(C)C(=O)O)n2Cc1ccc(Cl)cc1 [1H-Indole-2-propanoic acid, 1-[(4-chlorophenyl)methyl]-3-[(1,1-dimethylethyl)thio]-Alpha,Alpha-dimethyl-5-(1-methylethyl)-]",demonstrate PAI-1 inhibitor activity
5,"CCOc1ccc(C(=O)c2ccc(O)c(O)c2O)cc1 [2,3,4-TRIHYDROXY-4′-ETHOXYBENZOPHENONE]",demonstrate PAI-1 inhibitor activity
6,"CCOC(=O)C1(O)Oc2cc(OC)cc(OC)c2C(=O)C1c1ccccc1 (stereo not drawn) [2-ETHOXYCARBONYL-2-HYDROXY-5,7-DIMETHOXYISOFLAVANONE]",demonstrate PAI-1 inhibitor activity
7,"O=C(OC1Cc2c(O)cc(O)cc2O[C@@H]1c1cc(O)c(O)c(O)c1-c1c([C@@H]2Oc3cc(O)cc(O)c3C[C@@H]2OC(=O)c2cc(O)c(O)c(O)c2)cc(O)c(O)c1O)c1cc(O)c(O)c(O)c1 (stereo partly drawn) [2′,2′-BISEPIGAL[…]]",demonstrate PAI-1 inhibitor activity
8,"c1ccc2c(Cc3c[nH]c4ccccc34)c[nH]c2c1 [3,3′-DIINDOLYLMETHANE]",demonstrate PAI-1 inhibitor activity
9,"O=c1c(-c2ccccc2)coc2cc(O)cc(O)c12 [5,7-DIHYDROXYISOFLAVONE]",demonstrate PAI-1 inhibitor activity
10,CCCCCCCCCOc1ccc2[nH]cc(CCN)c2c1 [5-Nonyloxytryptamine],demonstrate PAI-1 inhibitor activity
11,O=C(O)c1cc(O)c(=O)c2c(O)c(O)ccc2c1 [7-DESHYDROXYPYROGALLIN-4-CARBOXYLIC ACID],demonstrate PAI-1 inhibitor activity
12,CC[C@@]1(O)C[C@H](O[C@H]2C[C@H](N(C)C)[C@H](O)[C@H](C)O2)c2c(cc3c(c2O)C(=O)c2c(O)cccc2C3=O)[C@H]1C(=O)OC [AKLAVINE HYDROCHLORIDE],demonstrate PAI-1 inhibitor activity
13,O=C(O)C1CC([C@@H]2CCCCN2)CN2CCCCC12 (stereo partly drawn) [APHYLLIC ACID],demonstrate PAI-1 inhibitor activity
14,CN1CCCC(n2nc(Cc3ccc(Cl)cc3)c3ccccc3c2=O)CC1 (stereo not drawn) [AZELASTINE HYDROCHLORIDE],demonstrate PAI-1 inhibitor activity
15,CC1(C)S[C@@H]2[C@H](NC(=O)[C@H](NC(=O)N3CCNC3=O)c3ccccc3)C(=O)N2[C@H]1C(=O)[O-].[Na+] [AZLOCILLIN SODIUM],demonstrate PAI-1 inhibitor activity
16,NC(CO)C(=O)NNCc1ccc(O)c(O)c1O (stereo not drawn) [BENSERAZIDE HYDROCHLORIDE],demonstrate PAI-1 inhibitor activity
17,CC(C)C[C@H](NC(=O)[C@@H](O)[C@H](N)Cc1ccccc1)C(=O)O [BESTATIN],demonstrate PAI-1 inhibitor activity
18,c1ccc(-c2ccc(C(c3ccccc3)n3ccnc3)cc2)cc1 (stereo not drawn) [BIFONAZOLE],demonstrate PAI-1 inhibitor activity
19,Oc1c(Cl)cc(Cl)cc1Sc1cc(Cl)cc(Cl)c1O [BITHIONOL],demonstrate PAI-1 inhibitor activity
20,Oc1ccc2c(c1)OC[C@]1(O)Cc3cc(O)c(O)cc3[C@H]21 [BRAZILIN],demonstrate PAI-1 inhibitor activity
21,"COc1ccc(CCN(C)CCC[C@](C#N)(c2ccc(OC)c(OC)c2)C(C)C)cc1OC [Benzeneacetonitrile, Alpha-[3-[[2-(3,4-dimethoxyphenyl)ethyl]methylamino]propyl]-3,4-dimethoxy-Alpha-(1-methylethyl)-, (R)-]",demonstrate PAI-1 inhibitor activity
22,C=C1/C(=C\C=C2/CCC[C@@]3(C)[C@@H]2CC[C@H]3[C@H](C)/C=C/[C@@H](O)C2CC2)C[C@@H](O)C[C@H]1O [CALCIPOTRIOL],demonstrate PAI-1 inhibitor activity
23,CCOc1nc2cccc(C(=O)OC(C)OC(=O)OC3CCCCC3)c2n1Cc1ccc(-c2ccccc2-c2nn[nH]n2)cc1 (stereo not drawn) [CANDESARTAN CILEXTIL],demonstrate PAI-1 inhibitor activity
24,C[C@]12CCC(=O)C=C1C=C[C@@H]1[C@@H]2CC[C@@]2(C)[C@H]1CC[C@@]21CCC(=O)O1 [CANRENONE],demonstrate PAI-1 inhibitor activity
25,C[N+](C)(C)CCOC(N)=O [CARBACHOL],demonstrate PAI-1 inhibitor activity

row,Compound,screening hit: restoration of β-trypsin activity
1,NCCC(=O)N[C@@H](Cc1c[nH]cn1)C(=O)O [CARNOSINE],demonstrate PAI-1 inhibitor activity
2,C=CC1=C(C(=O)O)N2C(=O)[C@@H](NC(=O)C(NOCC(=O)O)c3csc(N)n3)[C@H]2SC1 (stereo partly drawn) [CEFIXIME TRIHYDRATE],demonstrate PAI-1 inhibitor activity
3,CC1=C(O)C(=O)C=C2C1=CC=C1[C@@]2(C)CC[C@@]2(C)[C@@H]3C[C@](C)(C(=O)O)CC[C@]3(C)CC[C@]12C [CELASTROL],demonstrate PAI-1 inhibitor activity
4,NCC1CCC(C(=O)Oc2ccc(CCC(=O)O)cc2)CC1 (stereo not drawn) [CETRAXATE HCl],demonstrate PAI-1 inhibitor activity
5,CCN(CC)CCOc1ccc(C(=C(Cl)c2ccccc2)c2ccccc2)cc1 [CLOMIPHENE CITRATE],demonstrate PAI-1 inhibitor activity
6,Cc1nc(C)c(Cl)c(O)c1Cl [CLOPIDOL],demonstrate PAI-1 inhibitor activity
7,COc1ccccc1/C=C\C(=O)O [COUMARINIC ACID METHYL ETHER],demonstrate PAI-1 inhibitor activity
8,COc1ccc2c(=O)c(-c3cc4c(cc3OC)OCO4)coc2c1 [CUNEATIN METHYL ETHER],demonstrate PAI-1 inhibitor activity
9,COc1ccccc1OCCNCC(O)COc1cccc2[nH]c3ccccc3c12 (stereo not drawn) [Carvedilol],demonstrate PAI-1 inhibitor activity
10,CCN(CC)C(=O)N1CCN(C)CC1 [DIETHYLCARBAMAZINE CITRATE],demonstrate PAI-1 inhibitor activity
11,CC(C)=CCCC1(C)C=Cc2c(O)c3c(c(CC=C(C)C)c2O1)OC12C(=CC4CC1C(C)(C)OC2(C/C=C(/C)C(=O)O)C4O)C3=O (stereo not drawn) [DIHYD[…]],demonstrate PAI-1 inhibitor activity
12,COc1c(Cl)c(C)c2c(c1Cl)OC(=O)c1c(C)c(Cl)c(O)c(Cl)c1O2 [DIPLOICIN],demonstrate PAI-1 inhibitor activity
13,CC(=O)Oc1cccc(C(=O)O)c1OC(C)=O [DIPYROCETYL],demonstrate PAI-1 inhibitor activity
14,CCN(CC)CCOC(=O)C(c1ccccc1)C1CCCCC1 (stereo not drawn) [DROFENINE HYDROCHLORIDE],demonstrate PAI-1 inhibitor activity
15,O=C1Nc2ccc(Cl)cc2[C@@](C#CC2CC2)(C(F)(F)F)O1 [EFAVIRENZ],demonstrate PAI-1 inhibitor activity
16,O=C(O[C@@H]1Cc2c(O)cc(O)cc2O[C@@H]1c1ccc(O)c(O)c1)c1cc(O)c(O)c(O)c1 [EPICATECHIN MONOGALLATE],demonstrate PAI-1 inhibitor activity
17,"O=C(Oc1cc(O)cc2c1C[C@@H](OC(=O)c1cc(O)c(O)c(O)c1)[C@@H](c1cc(O)c(O)c(O)c1)O2)c1cc(O)c(O)c(O)c1 [EPIGALLOCATECHIN 3,5-DIGALLATE]",demonstrate PAI-1 inhibitor activity
18,Oc1cc(O)c2c(c1)O[C@H](c1cc(O)c(O)c(O)c1)[C@H](O)C2 [EPIGALLOCATECHIN],demonstrate PAI-1 inhibitor activity
19,O=C1[C@H](CC[C@H](O)c2ccc(F)cc2)[C@@H](c2ccc(O)cc2)N1c1ccc(F)cc1 [EZETIMIBE],demonstrate PAI-1 inhibitor activity
20,CS(=O)(=O)O.Oc1ccc(C2CNCCc3c2cc(O)c(O)c3Cl)cc1 (stereo not drawn) [FENOLDOPAM MESYLATE],demonstrate PAI-1 inhibitor activity
21,NC(=O)OCC(COC(N)=O)c1ccccc1 [Felbamate],demonstrate PAI-1 inhibitor activity
22,CCOC(=O)c1ccc(OC(=O)CCCCCN=C(N)N)cc1.CS(=O)(=O)O [GABEXATE MESYLATE],demonstrate PAI-1 inhibitor activity
23,CC(C)=CCCC1(C)C=Cc2c(O)c3c(c(CC=C(C)C)c2O1)OC12C(=CCCC1C(C)(C)O[C@@]2(C/C=C(\C)C(=O)O)C(=O)O)C3=O (stereo partly drawn) [GARCINOLIC ACID],demonstrate PAI-1 inhibitor activity
24,Cl.N[C@H]1C(O)O[C@H](CO)[C@@H](O)[C@@H]1O (stereo partly drawn) [GLUCOSAMINE HYDROCHLORIDE],demonstrate PAI-1 inhibitor activity
